Reference: ChEMBL document CHEMBL1123070, “Conformational properties of central nervous system active thyrotropin releasing hormone analogues: probing structure-activity relationships at the molecular level” (1985)

Organism: Mus musculus
Experiment: Relative CNS activity against reserpine hypothermia in mice relatived to TRH
Format: functional, Central nervous system

Compared with `NC(=O)[C@H]1CCCN1C(=O)[C@H](Cc1c[nH]cn1)NC(=O)c1nc(O)nc(O)c1Br`, `CCc1c(O)nc(O)nc1C(=O)N[C@@H](Cc1c[nH]cn1)C(=O)N1CCC[C@@H]1C(N)=O` is lower in Relative activity: 0.7 for the first, 0.09 for the second.

First: CC1SCC(C(=O)N[C@@H](Cc2c[nH]cn2)C(=O)N2CCC[C@@H]2C(N)=O)NC1=O (stereo partly specified)
Second: C[C@@H]1SCC(C(=O)N[C@@H](Cc2c[nH]cn2)C(=O)N2CCC[C@@H]2C(N)=O)NC1=O (stereo partly specified)
The Relative activity of the first is higher: 83 for the first, 17 for the second.

`CCCc1c(O)nc(O)nc1C(=O)N[C@@H](Cc1c[nH]cn1)C(=O)N1CCC[C@@H]1C(N)=O` and `NC(=O)[C@@H]1CCCN1C(=O)[C@@H](Cc1c[nH]cn1)NC(=O)[C@@H]1CSC(=O)N1` are the same in Relative activity: 0.8 for the first, 0.8 for the second.
